Experimental data from paper PMC11801715, “Activating PKC-ε induces HIV expression with improved tolerability” (PLOS Pathogens, 2025).
Read-outs that look alike come from different tables or passages of the source.

Experiments:
[1] = tested on: platelets (CD62P+) and CD4+ T cells (CD69+) in whole blood; test: In vitro whole blood platelet and CD4+ T-cell activation assay; assay type: cell-based, human; conditions: whole blood from healthy donors; platelets to CD4+ T cells
Description: We developed a novel human whole blood assay to determine whether other PKC agonists also activate platelets at the same concentrations that are required to activate CD4^+ T cells. Platelet activation was assessed by CD62P (P-selectin), which traffics to the cell surface upon activation and α-granule release. CD4^+ T-cell activation was assessed by CD69 upregulation (Fig 7A).
Whole blood was drawn into sodium citrate tubes using a 21-gauge needle. To prevent potential interference from tissue thromboplastin released during venipuncture, which could affect the accuracy of coagulation testing, the first 2 mL of blood drawn was discarded. PKC agonist molecules were dispensed in a dilution series into 80 μL of blood per well in a flat-bottom 96-well plate and mixed gently. Care was taken not to introduce any mechanical stress-related activation of platelets. […] The remaining 72 μL of blood in the first plate was incubated for 1 additional hour and stained with anti-human CD3 (UCHT1), CD4 (SK3), and CD69 (FN50) (30 minutes in the dark). Red blood cell lysis and fixing was done using BD lyse/fix solution. Stained cells were acquired on BD LSR Fortessa II after washing. […] EC50 values for platelet and CD4 T-cell activation for each agonist was obtained by nonlinear regression curve fit using GraphPad Prism version 9.3.0.

[2] = Free fraction in cell culture media; assay type: in vitro ADME
PKC-β1 [3] = molecular target: T1, PKC-β1 (Homo sapiens, UniProt P05771); test: Z'-LYTE kinase activity assay; assay type: biochemical; conditions: ATP at Kmapp, 2 μM peptide substrate; read-out: IC50 for classical PKC isoforms, PKC-β1
T1 sequence (P05771 whole entry, canonical isoform): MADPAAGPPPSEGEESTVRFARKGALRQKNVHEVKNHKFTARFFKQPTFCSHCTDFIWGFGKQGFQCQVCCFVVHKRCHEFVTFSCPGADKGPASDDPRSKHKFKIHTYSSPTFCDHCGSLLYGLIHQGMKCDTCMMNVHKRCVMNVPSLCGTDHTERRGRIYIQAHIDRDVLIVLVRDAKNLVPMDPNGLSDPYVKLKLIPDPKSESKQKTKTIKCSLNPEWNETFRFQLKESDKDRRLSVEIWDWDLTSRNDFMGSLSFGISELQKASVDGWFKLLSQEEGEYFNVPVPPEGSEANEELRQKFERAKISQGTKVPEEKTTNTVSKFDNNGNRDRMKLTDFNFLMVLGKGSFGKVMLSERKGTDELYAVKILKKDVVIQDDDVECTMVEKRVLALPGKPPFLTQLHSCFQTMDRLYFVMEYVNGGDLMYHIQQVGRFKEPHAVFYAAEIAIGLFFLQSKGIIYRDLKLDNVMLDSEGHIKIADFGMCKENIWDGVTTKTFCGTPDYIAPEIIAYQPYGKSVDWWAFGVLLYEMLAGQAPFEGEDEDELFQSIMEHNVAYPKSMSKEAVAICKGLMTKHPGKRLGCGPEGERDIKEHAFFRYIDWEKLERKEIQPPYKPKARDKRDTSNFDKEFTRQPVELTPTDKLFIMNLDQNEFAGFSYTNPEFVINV
Text: (§1) In this assay, phosphorylation of a synthetic FRET-peptide substrate protects the peptide from cleavage by the development reagent and prevents disruption of the FRET signal.

PKC-β2 [4] = molecular target: T2, PKC-β2 (Homo sapiens, UniProt P05771); test: Z'-LYTE kinase activity assay; assay type: biochemical; conditions: ATP at Kmapp, 2 μM peptide substrate; read-out: IC50 for classical PKC isoforms, PKC-β2
T2 sequence (P05771 1-673 isoform P05771-2): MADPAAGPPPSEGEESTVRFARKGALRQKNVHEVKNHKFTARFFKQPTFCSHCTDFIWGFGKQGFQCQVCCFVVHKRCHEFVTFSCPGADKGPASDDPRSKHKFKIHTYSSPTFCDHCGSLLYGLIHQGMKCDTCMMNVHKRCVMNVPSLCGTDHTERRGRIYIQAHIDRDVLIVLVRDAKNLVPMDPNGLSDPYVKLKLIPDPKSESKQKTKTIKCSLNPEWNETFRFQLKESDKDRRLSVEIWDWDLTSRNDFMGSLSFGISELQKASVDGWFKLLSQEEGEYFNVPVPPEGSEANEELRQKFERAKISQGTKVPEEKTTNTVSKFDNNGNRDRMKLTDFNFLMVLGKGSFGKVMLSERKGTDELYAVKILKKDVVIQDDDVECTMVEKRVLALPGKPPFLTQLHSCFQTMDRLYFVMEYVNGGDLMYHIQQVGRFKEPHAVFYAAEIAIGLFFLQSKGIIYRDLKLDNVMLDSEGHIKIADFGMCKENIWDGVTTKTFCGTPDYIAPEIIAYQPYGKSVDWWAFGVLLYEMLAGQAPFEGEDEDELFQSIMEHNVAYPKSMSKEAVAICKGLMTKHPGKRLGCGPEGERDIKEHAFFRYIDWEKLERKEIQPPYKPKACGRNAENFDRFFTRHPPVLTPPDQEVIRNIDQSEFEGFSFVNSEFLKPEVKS
Text: as §1

PKC-α [5] = molecular target: T3, PKC-α (Homo sapiens, UniProt P17252); test: Z'-LYTE kinase activity assay; assay type: biochemical; conditions: ATP at Kmapp, 2 μM peptide substrate; read-out: IC50 for classical PKC isoforms, PKC-α
Text: as §1

[6] = tested on: classical and novel PKC isoforms; test: Estimated PKC inhibition in cell culture from Z'-LYTE IC50 and free fraction; assay type: biochemical; conditions: 25 µM, 34% free in cell culture media
Text: as §1

PKC δ and ε over α and β = conditions: cited from earlier work
PKC-η = PKC-η (Homo sapiens, UniProt P24723); test: PKC isoform translocation in A549-tGFP cells; assay type: cell-based; parameters: host or cells: A549; conditions: A549-tGFP cells, 60 minutes
PKC-η, sequence (P24723 whole entry, canonical isoform): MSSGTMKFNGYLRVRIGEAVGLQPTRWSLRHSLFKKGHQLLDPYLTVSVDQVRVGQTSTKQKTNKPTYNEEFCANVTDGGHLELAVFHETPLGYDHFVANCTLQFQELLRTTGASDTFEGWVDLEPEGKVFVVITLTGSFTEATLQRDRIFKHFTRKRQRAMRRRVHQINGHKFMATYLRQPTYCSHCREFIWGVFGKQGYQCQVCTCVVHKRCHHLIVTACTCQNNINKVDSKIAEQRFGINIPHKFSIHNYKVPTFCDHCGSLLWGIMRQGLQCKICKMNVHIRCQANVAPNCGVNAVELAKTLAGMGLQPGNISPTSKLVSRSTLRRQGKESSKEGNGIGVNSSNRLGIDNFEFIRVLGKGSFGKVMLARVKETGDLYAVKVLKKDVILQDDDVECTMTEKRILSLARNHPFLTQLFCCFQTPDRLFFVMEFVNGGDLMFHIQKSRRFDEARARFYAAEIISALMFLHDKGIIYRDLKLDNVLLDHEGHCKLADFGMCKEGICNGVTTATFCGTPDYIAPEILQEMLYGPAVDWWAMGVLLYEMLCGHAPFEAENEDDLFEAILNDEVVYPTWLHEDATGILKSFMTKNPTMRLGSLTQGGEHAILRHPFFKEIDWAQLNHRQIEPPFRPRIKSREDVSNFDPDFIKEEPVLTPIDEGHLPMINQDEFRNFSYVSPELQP
Description: (§2) A description of this effort is reported elsewhere.
(§3) Cellular translocation of PKC isoforms upon activation was determined in 8 A549 cell lines, each expressing a single PKC isoform fused to tGFP (PhenoVista Biosciences). Cells were plated in 384-well plates (80 μL/well) at 10^5 cells/mL in RPMI with 10% FBS and rested overnight. PKC agonist(s) were serially diluted at 1:3 steps in DMSO and added to the cells. After 60 minutes in an incubator at 37 °C, 5% CO2, cells were stained with Hoechst-33342 and fixed with 2% paraformaldehyde for 30 minutes at 4 °C. Cells were then stained with wheat germ agglutinin conjugated to AlexaFluor647 (WGA-647) for 10 minutes at 4 °C, washed to remove excess dye and imaged with Cellomics Array Scan (Thermo Fisher) at room temperature (RT). Images were analyzed using Cellomics automated image analysis algorithm. Plasma membrane translocation was quantified using the ratio between the average fluorescence in the areas at the cell edge defined by WGA-647 and the cytoplasm region.

PKC-δ = PKC-δ (Homo sapiens, UniProt Q05655); test: PKC isoform translocation in A549-tGFP cells; assay type: cell-based; parameters: host or cells: A549
PKC-δ, sequence (Q05655 whole entry, canonical isoform): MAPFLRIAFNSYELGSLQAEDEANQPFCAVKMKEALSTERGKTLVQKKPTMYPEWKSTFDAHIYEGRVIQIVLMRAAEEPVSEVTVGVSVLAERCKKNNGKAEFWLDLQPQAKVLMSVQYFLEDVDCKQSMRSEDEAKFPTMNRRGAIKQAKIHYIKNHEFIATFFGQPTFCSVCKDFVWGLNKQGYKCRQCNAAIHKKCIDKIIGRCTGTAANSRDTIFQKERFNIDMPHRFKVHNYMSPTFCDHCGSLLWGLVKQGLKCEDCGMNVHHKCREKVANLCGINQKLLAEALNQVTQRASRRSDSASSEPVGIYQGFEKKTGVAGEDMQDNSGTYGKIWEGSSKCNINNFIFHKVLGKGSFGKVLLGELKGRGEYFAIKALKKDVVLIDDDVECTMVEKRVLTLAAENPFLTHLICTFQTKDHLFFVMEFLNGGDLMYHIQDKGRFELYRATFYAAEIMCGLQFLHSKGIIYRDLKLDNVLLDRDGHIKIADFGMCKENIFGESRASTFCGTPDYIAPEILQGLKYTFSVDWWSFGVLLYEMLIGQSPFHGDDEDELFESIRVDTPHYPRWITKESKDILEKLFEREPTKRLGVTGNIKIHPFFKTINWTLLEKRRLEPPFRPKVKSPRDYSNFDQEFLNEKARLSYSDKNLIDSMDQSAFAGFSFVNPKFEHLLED
Description: as §2, §3

PKC-θ = PKC-θ (Homo sapiens, UniProt Q04759); test: PKC isoform translocation in A549-tGFP cells; assay type: cell-based; parameters: host or cells: A549; conditions: A549-tGFP cells, 60 minutes
PKC-θ, sequence (Q04759 whole entry, canonical isoform): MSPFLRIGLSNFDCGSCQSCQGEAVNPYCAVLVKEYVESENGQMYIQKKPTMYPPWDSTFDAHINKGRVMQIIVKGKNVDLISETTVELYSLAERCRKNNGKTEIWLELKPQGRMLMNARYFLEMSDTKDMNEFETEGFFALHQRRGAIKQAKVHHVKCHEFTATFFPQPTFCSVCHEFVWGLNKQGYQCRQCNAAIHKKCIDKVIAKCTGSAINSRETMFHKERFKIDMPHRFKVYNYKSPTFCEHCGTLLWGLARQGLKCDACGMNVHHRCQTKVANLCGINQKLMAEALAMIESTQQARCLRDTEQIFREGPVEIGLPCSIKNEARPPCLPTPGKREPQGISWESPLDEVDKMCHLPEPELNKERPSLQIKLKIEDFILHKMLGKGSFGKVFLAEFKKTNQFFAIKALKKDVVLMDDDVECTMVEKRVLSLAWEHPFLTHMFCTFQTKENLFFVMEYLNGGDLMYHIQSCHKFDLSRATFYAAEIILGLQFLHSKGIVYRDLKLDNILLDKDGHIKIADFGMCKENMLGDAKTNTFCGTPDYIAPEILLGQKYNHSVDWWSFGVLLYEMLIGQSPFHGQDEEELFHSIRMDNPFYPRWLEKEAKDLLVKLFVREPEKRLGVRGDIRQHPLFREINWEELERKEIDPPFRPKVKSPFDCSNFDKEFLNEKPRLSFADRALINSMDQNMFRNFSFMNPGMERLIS
Description: as §2, §3

PKC-α [7] = molecular target: T3, PKC-α; test: PKC isoform translocation in A549-tGFP cells; assay type: cell-based; parameters: host or cells: A549
Description: as §2, §3

PKC-γ = PKC-γ (Homo sapiens, UniProt P05129); test: PKC isoform translocation in A549-tGFP cells; assay type: cell-based; parameters: host or cells: A549; conditions: 60 minutes
Description: (§4) Using these findings we embarked on new designs for DAG-lactones with additional substituents from the ester moiety in combination with a few olefin substituents. A description of this effort is reported elsewhere.
as §3

PKC-β1 [8] = molecular target: T1, PKC-β1; test: PKC isoform translocation in A549-tGFP cells; assay type: cell-based; parameters: host or cells: A549; conditions: 60 minutes
Description: as §4, §3

PKC-β2 [9] = molecular target: T2, PKC-β2; test: PKC isoform translocation in A549-tGFP cells; assay type: cell-based; parameters: host or cells: A549; conditions: 60 minutes
Description: as §4, §3

PKC-ε = molecular target: T4, PKC-ε (Homo sapiens, UniProt Q02156); test: PKC isoform translocation in A549-tGFP cells; assay type: cell-based; parameters: host or cells: A549; conditions: A549-tGFP cells, 60 minutes
T4 sequence (Q02156 1-737): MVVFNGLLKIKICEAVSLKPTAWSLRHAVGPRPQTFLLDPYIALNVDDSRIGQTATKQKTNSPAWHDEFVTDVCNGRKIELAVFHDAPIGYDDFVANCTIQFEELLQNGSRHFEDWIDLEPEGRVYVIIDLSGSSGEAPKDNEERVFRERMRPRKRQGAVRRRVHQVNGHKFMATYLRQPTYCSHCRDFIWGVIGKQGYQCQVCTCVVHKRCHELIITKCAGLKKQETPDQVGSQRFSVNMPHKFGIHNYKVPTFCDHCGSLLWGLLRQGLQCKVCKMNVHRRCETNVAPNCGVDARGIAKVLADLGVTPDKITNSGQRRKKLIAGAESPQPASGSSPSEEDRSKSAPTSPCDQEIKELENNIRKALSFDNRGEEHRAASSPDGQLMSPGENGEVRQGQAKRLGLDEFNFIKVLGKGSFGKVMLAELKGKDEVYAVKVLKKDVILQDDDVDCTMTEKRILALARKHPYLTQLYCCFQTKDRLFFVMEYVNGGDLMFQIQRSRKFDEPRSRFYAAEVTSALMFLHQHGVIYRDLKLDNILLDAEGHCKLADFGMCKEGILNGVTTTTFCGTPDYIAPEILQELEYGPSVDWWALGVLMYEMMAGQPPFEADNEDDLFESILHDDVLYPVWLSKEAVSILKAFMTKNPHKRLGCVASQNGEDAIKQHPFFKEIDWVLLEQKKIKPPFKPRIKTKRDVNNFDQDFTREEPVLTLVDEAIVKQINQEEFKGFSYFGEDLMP
Description: as §4, §3

[10] = tested on: latent HIV in total CD4+ T cells; test: microbe, parasite or virus in culture; assay type: cell-based, HIV-1; conditions: 5 μM
Description: Peripheral blood mononuclear cells and CD4^+ T cells used for evaluating PKC agonist and inhibitor molecules were isolated from leukopaks of selected participants as described previously. Isolated CD4^+ T cells (5×10^6 cells/well) were added to 24-well tissue culture plates in 2.5 mL of RPMI medium containing 100 nM each of elvitegravir and efavirenz. Cells were stimulated with DMSO (vehicle control) or the indicated concentrations of PKC agonist molecules. Cells were pretreated with PKC isoform inhibitors (Selleck Chemicals) for 1 hour before addition of PKC agonist at indicated concentrations and maintained at 37 °C, 5% CO2 for 3 days. Cell supernatants from each well were analyzed using the Cobas […] system for quantification of HIV-1 RNA using the HIV-1 test v2.0 kit (Roche Diagnostics).

Question: For `CCCCCCCCCCCCCC(=O)O[C@@H]1[C@@H](C)[C@@]2(O)[C@@H](C=C(CO)C[C@]3(O)C(=O)C(C)=C[C@@H]23)[C@@H]2C(C)(C)[C@]12OC(C)=O` [PMA, phorbol 12-myristate 13-acetate, reference compound], which “CD62P EC50/CD69 EC50 ratio Geomean” value [1] is on record?
Answer: 1.5

Question: Which results are given for `Cn1c2ccccc2c2c3c(c4c5ccccc5n(CCC#N)c4c21)CNC3=O` [Gӧ-6976]?
Answer: free in cell culture media [2]: 34%; IC50 (PKC-β1 [3]): 469 nM; IC50 (PKC-β2 [4]): 182 nM; IC50 (PKC-α [5]): 101 nM; estimated effect on novel PKC isoforms [6]: without impacting novel PKC isoforms; estimated inhibition of classical isoform activity [6]: 75%–95%

Question: With `CC(C)CC(C/C=C1\CC(CO)(COC(=O)C(C)(C)C)OC1=O)CC(C)C` (stereo not drawn) [AJH-863, reference compound] as the compound, how does the “potency as PKC agonist” value (PKC δ and ε over α and β) read?
Answer: low nanomolar potency

Question: And the “selectivity for δ and ε over α and β” value (PKC δ and ε over α and β)?
Answer: approximately 10 fold

Question: What about the EC50 (PKC-η) of the same compound?
Answer: 1890 nM

Question: What about the EC50 (PKC-δ; EC50 for PKC-δ translocation) of the same compound?
Answer: 2320 nM

Question: And the EC50 (PKC-θ)?
Answer: 1200 nM

Question: What about the EC50 (PKC-α [7]) of the same compound?
Answer: > 50000 nM

Question: What about the EC50 (PKC-γ) of the same compound?
Answer: 19400 nM

Question: And the EC50 (PKC-β1 [8])?
Answer: 1300 nM

Question: What about the EC50 (PKC-β2 [9]) of the same compound?
Answer: 1060 nM

Question: What about the EC50 (PKC-ε) of the same compound?
Answer: 505 nM

Question: Which “HIV RNA Fold∆ over DMSO, Geomean” value ([10]; agonist alone) does the source give for `CC(C)=C1CC(CO)(COC(=O)c2ccc(C#Cc3ccc(C)cc3)cc2)OC1=O` (stereo not drawn) [Comin compound 2] here?
Answer: 13 fold

Question: What about the “HIV RNA Fold∆ over DMSO, Geomean” value ([10]; +5 μM Gö-6850 Pan-PKC Inhibitor) of the same compound?
Answer: 1.6 fold

Question: And the “HIV RNA Fold∆ over DMSO, Geomean” value ([10]; +25 μM Gö-6976 Classical-PKC Inhibitor)?
Answer: 15 fold

Question: And the EC50 (PKC-η)?
Answer: 1190 nM

Question: What about the EC50 (PKC-δ; A549-tGFP cells, 60 minutes, read-out: EC50 for PKC-δ translocation) of the same compound?
Answer: 4040 nM

Question: What about the EC50 (PKC-θ) of the same compound?
Answer: 792 nM

Question: And the EC50 (PKC-α [7]; A549-tGFP cells, 60 minutes, read-out: EC50 for PKC-α translocation)?
Answer: > 50000 nM

Question: What about the EC50 (PKC-β1 [8]) of the same compound?
Answer: 966 nM

Question: What about the EC50 (PKC-β2 [9]) of the same compound?
Answer: 6650 nM

Question: And the EC50 (PKC-ε)?
Answer: 783 nM
